# Test results as given in patent publication US20250277030A1, “ANTI-NAPI2B ANTIBODIES AND METHODS OF USE” (Zymeworks BC Inc., priority 2022, published 2025).
# How the values were obtained:
# HCC-78 cells = assay: Internalization by flow cytometry in HCC-78 cells; format: cell-based, human; conditions: antibody 10 nM
# Experimental: (§1) Briefly, antibodies were fluorescently labeled by coupling to a Fab fragment AF488 conjugate targeting anti-Human IgG Fe (Jackson Immuno Research Labs, West Grove, PA; Cat. No. 109-547-008) at a 1:1 molar ratio in PBS pH 7.4 (Thermo Fisher Scientific, Waltham, MA; Cat. No. 10010-023), for 24 hours at 4° C. Cells were seeded at 50,000 cells/well in RPMI 1640, ATCC modification (Thermo Fisher Scientific, Waltham, MA) supplemented with 10% fetal bovine serum (Thermo Fisher Scientific, Waltham, MA) in 48-well plates and incubated overnight under standard culturing conditions (37° C./5% CO2) to allow attachment. […] Following incubation, cells were dissociated, washed, and surface AF488 fluorescence was quenched using an anti-AF488 antibody (Life Technologies, Carlsbad, CA; Cat. No. A-11094) at 100 nM for 30 minutes at 4° C. […] (internalized fluorescence) was detected by flow cytometry on a BD LSRFortessa™ Cell Analyzer (BD Biosciences, Franklin Lake, NJ) with 1,000 minimum events collected per well. The AF488/FITC-A GeoMean (fluorescence signal geometric mean, proportional to anti-Human Fab AF488 labelling) was calculated for the live single cell population using FlowJo™ Version 10.8.1 (BD Biosciences, Franklin Lake, NJ) and plotted using GraphPad Prism Version 9 (GraphPad Software, San Diego, CA).
# [1] = molecular target: T1, NaPi2b expressed on IGROV-1 cells (Homo sapiens, UniProt O95436); assay: Cellular binding of antibody and ADCs to IGROV-1 cells by flow cytometry (Example 14)
# T1 construct: IGROV-1 cells express endogenous NaPi2b at a high level; endogenous in cells; host or cells: IGROV-1
# T1 sequence (O95436 1-690): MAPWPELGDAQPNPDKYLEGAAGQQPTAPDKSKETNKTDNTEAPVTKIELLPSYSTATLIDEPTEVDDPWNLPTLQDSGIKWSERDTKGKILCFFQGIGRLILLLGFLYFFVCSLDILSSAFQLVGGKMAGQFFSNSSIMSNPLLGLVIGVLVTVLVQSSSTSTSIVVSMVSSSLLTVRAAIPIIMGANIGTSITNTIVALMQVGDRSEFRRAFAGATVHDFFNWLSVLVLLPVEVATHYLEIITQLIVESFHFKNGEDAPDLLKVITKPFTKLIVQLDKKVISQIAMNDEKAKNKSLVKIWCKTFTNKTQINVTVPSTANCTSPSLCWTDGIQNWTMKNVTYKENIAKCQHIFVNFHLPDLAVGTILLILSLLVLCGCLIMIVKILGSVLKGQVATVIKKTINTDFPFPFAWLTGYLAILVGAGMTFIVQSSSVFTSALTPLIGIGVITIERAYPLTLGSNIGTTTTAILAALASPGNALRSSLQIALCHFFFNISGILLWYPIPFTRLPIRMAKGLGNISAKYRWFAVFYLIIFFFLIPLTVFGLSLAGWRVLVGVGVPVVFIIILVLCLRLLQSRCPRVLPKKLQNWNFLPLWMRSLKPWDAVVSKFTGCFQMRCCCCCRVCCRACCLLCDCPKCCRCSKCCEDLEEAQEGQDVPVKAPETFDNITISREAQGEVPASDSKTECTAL
# Experimental: (§2) Briefly, HEK293-6e cells were transfected for ˜24 hours to transiently express human NaPi2b, cynomolgus or mouse NaPi2b, at 1 μg of DNA per 1 million cells. Following transfection, 50,000 cells per well were seeded in V-bottom 96-well plates and incubated with 200 nM of primary antibody for 18-24 hours at 4° C. to prevent internalization. Post-incubation, cells were washed and stained with anti-Human IgG Fc AF647 conjugate (Jackson Immuno Research Labs, West Grove, PA, Cat. No. 109-605-098, Lot. No. 124868) at 4° C. for 1 hour. Following staining and washing, fluorescence was detected by flow cytometry on BD LSRFortessa™ Cell Analyzer (BD Biosciences, Franklin Lake, NJ) with 10,000 minimum events collected per well. The AF647/APC-A GeoMean (fluorescence signal geometric mean, proportional to anti-Human AF647 binding) was calculated for the live singlet cell population for each primary antibody using FlowJo™ v8 software (BD Biosciences, Franklin Lake, NJ). The Bmax and Kd of each primary antibody were calculated using GraphPad Prism Version 9 (GraphPad Software, San Diego, CA)
# The ability of ADCs to bind to cells expressing NaPi2b was assessed. […] Binding to endogenous high NaPi2b-expressing cell lines IGROV-1 and HCC-78 was assessed by flow cytometry according to methods described in Example 5.
# NCI-H441 cells = assay: Internalization by flow cytometry in NCI-H441 cells; format: cell-based, human; conditions: antibody 10 nM
# Experimental: as §1
# cynomolgus NaPi2b = assay: Flow cytometry binding to HEK293-6e cells transfected with cynomolgus NaPi2b (Example 5); conditions: transfected HEK293-6e cells
# Experimental: The binding cross-reactivity of humanized antibody variant v29456 to human, cynomolgus and mouse NaPi2b was assessed by flow cytometry using HEK293-6e transfected cells.
# as §2
# Sequence of cynomolgus NaPi2b (as listed by the source): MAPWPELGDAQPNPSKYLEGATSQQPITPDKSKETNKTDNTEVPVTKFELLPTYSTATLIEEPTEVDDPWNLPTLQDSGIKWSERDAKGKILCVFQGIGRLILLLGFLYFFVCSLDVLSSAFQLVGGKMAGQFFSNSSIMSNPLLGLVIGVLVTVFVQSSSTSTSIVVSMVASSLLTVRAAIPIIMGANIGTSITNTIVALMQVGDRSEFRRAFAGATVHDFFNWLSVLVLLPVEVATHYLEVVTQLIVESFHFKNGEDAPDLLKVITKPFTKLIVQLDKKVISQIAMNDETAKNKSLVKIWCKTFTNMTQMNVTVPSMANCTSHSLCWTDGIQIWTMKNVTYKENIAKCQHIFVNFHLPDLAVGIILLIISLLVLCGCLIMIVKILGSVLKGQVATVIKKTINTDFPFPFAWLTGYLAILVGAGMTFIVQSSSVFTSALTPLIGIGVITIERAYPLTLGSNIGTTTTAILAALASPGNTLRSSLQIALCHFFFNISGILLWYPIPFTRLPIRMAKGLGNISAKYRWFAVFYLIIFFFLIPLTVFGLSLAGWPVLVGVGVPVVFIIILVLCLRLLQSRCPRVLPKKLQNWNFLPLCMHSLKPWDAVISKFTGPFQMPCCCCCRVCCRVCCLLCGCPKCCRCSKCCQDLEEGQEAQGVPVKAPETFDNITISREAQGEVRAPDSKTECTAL
substance,measurement,setting,value
"v22277: anti-RSV antibody palivizumab, negative control; has a heterodimeric Fc [reference compound]",Internalized Fluorescence Fold-Over Palivizumab,"HCC-78 cells; HCC-78, 5 hrs",1.0 fold
same,Internalized Fluorescence Fold-Over Palivizumab,"HCC-78 cells; HCC-78, 24 hrs",1.0 fold
same,"Binding to IGROV-1 cells, in words",[1],did not bind
same,Internalized Fluorescence Fold-Over Palivizumab,"NCI-H441 cells; NCI-H441, 5 hrs",1.0 fold
same,Internalized Fluorescence Fold-Over Palivizumab,"NCI-H441 cells; NCI-H441, 24 hrs",1.0 fold
same,"Binding to cynomolgus NaPi2b, in words",cynomolgus NaPi2b,did not bind
